Measured values taken from article PMC7932537, “Quantitative profiling of protease specificity” (PLoS Computational Biology, 2021).

How the values were obtained:
MMP-2 [1] = test: Substrate phage display with NGS: relative probability (RP) of P3-P1' tetramer clusters; type: biochemical, human; settings: MMP2;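 note: ratio of tetramer probability after protease selection to that in naive phage library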
MMP-2 [2] = molecular target: T1, MMP-2 (Homo sapiens, UniProt P08253); test: K(obs) of individual phage substrates (set of 1369); type: biochemical; settings: MMP2
T1 sequence (P08253 110-660): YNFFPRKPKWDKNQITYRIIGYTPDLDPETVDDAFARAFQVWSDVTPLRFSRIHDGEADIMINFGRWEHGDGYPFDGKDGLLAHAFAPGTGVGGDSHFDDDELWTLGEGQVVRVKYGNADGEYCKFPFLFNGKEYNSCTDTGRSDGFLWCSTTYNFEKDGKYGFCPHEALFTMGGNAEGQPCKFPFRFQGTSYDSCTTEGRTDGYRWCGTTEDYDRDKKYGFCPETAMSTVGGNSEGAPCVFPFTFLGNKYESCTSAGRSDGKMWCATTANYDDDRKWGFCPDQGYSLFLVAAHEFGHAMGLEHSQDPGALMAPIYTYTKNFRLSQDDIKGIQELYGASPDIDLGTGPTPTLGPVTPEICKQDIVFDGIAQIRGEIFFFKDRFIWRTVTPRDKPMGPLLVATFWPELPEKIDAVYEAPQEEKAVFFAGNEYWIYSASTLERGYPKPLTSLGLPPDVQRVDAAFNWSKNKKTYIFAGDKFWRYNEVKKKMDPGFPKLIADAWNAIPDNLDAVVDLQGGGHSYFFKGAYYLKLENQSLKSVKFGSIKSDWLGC

MMP-9 = MMP-9 (Homo sapiens, UniProt P14780); test: as above; type: biochemical; settings: MMP9
[3] = RP of the P3-P1' tetramer contained in the substrate
[4] = individual phage substrate of the set of 1369 peptides, cleavage position marked by '-'
[5] = individual phage substrate of the set of 1369 peptides, dash in the sequence marks the cleavage position
[6] = RP of the P3-P1' tetramer contained in the substrate (substrate phage display with NGS)
[7] = individual phage substrates, set of 1369 peptides, cleavage position marked by hyphen in sequence
[8] = individual phage substrates, set of 1369 peptides, hyphen in sequence marks cleavage position

Chain of MMP-9 (P14780 94-707): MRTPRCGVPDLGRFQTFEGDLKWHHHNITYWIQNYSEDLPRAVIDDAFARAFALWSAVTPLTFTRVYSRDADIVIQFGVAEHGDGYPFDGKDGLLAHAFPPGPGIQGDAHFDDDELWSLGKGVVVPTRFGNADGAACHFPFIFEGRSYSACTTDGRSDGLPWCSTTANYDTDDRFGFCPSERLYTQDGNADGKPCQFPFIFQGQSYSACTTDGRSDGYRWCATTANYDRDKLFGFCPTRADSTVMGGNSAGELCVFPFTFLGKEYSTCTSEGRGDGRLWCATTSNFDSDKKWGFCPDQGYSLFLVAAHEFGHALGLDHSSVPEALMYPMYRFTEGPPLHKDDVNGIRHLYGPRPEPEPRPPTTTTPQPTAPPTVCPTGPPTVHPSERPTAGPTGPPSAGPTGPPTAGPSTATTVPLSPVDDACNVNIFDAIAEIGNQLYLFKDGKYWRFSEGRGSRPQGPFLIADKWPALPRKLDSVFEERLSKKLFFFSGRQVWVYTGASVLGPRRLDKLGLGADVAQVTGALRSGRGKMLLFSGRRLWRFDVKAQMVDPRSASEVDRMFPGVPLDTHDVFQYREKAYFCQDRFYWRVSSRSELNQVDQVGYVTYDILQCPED

Substance	relative probability (RP) (MMP-2 [1]; [3])	Kobs (MMP-2 [2]; [4]) [M⁻¹ s⁻¹]	Kobs (MMP-9; [5]) [M⁻¹ s⁻¹]	relative probability (RP) (MMP-2 [1]; [6])	Kobs (MMP-2 [2]; [7]) [M⁻¹ s⁻¹]	Kobs (MMP-9; [8]) [M⁻¹ s⁻¹]
GNPYK-LTASG	15.5683	1196.62	8941.32	–	–	–
GSVNY-LVTAS	–	–	–	8.427	0	0
FPGRH-LTASG	3.598	1239.69	484.315	–	–	–
SGVWN-LIMTA	14.4124	619.843	6688.74	–	–	–
GSMNS-LRTAS	18.7113	3741.87	874.197	–	–	–
EQLSF-LTASG	–	–	–	14.5333	12792.1	0
EIWLP-ITASG	–	–	–	0.6666	951.362	142.481
KAVNH-LTASG	12.8499	1763.55	0	–	–	–
SPPLA-LTASG	–	–	–	34.4921	10866.7	10866.7
GAPMN-VVTAS	12.9651	5889.62	12792.1	–	–	–
FQFEH-LTASG	–	–	–	1.21	874.197	113.394
SGPRF-IRLTA	22.3274	1154.21	2097.28	–	–	–
GRARW-LMTAS	19.0362	1561.44	3079.62	–	–	–
VLPEP-LTASG	26.8179	8941.32	6396.07	–	–	–
ANYSN-ITASG	–	–	–	14.6847	4470.66	0
NMWAH-LTASG	–	–	–	7.453	3079.62	323.705
SGPNY-IRATA	–	–	–	6.689	7386.83	12792.1
SGARQ-LVLTA	–	–	–	3.214	0	0

Substance	relative probability (RP) (MMP-2 [1]; [3])	Kobs (MMP-2 [2]; [4]) [M⁻¹ s⁻¹]	Kobs (MMP-9; [5]) [M⁻¹ s⁻¹]	relative probability (RP) (MMP-2 [1]; [6])	Kobs (MMP-2 [2]; [7]) [M⁻¹ s⁻¹]	Kobs (MMP-9; [8]) [M⁻¹ s⁻¹]
PIALH-WTASG	–	–	–	5.12	12792.1	12792.1
VMLRF-LTASG	10.7085	12792.1	8321.48	–	–	–
SGPTA-LRATA	32.8941	10866.7	12792.1	–	–	–
RTPVG-LTASG	–	–	–	35.2016	12792.1	8321.48
GWPAG-LTTAS	36.0156	12792.1	12792.1	–	–	–
SGSRA-LTASG	12.4506	2097.28	951.362	–	–	–
SGPFF-LRKTA	–	–	–	12.8224	1239.69	5090.5
GSTRN-LITAS	–	–	–	12.3403	1870.4	990.764
ASTLH-LTASG	–	–	–	2.471	0	56.119
GISQS-LITAS	–	–	–	5.003	0	0
GGSGM-LKLQP	–	–	–	1.312	0	0
QAPMG-LTASG	34.7865	3438.54	9740.44	–	–	–
TVVAY-ITASG	18.7179	12792.1	1112.44	–	–	–
SFPNP-LTASG	23.6266	5667.28	2545.25	–	–	–
YEPRN-VTASG	–	–	–	26.6015	12792.1	10866.7
PTFAH-LTASG	19.6504	9740.44	585.336	–	–	–
GGSGA-LRVRG	13.4712	1154.21	0	–	–	–
